Columns and labels:
Aedes aegypti = assay: Contact/ingestion efficacy test against Aedes aegypti larvae; format: in vivo; conditions: final concentration 12.5 μM, first-instar larvae, after 48 hours, 28° C., 80% RH, read-out: mortality rate against Aedes aegypti
Experimental: A DMSO solution of the compound of the present invention was diluted with water to obtain a 125 μM dilute solution. Ten first-instar larvae of Aedes aegypti were placed in each well of a 96-well microtiter plate, the above dilute liquid was added in a ratio of 1/10, and a test was conducted at a final concentration of 12.5 μM. The samples were incubated in a temperature-controlled room (28° C., 80% RH), and after 48 hours of treatment with the compound, the mortality of the larvae was investigated. The test was repeated.

Meloidogyne incognita [1] = assay: Efficacy test against Meloidogyne incognita (in vitro test); conditions: 48 h, final concentration 50 ppm, second-instar larvae (L2), 2 days at 15° C., read-out: nematode mortality (still) rate against Meloidogyne incognita
Experimental: (§1) Two hundred μL of a suspension containing about 50 second-instar larvae (L2) of Meloidogyne incognita was dispensed into each well of a 96-well microplate, and 0.2 μL of a 10,000 ppm dimethylsulfoxide solution of the compound of the present invention was injected into each well to achieve a final concentration of 50 ppm. Mortality was investigated after 2 days treatment at 15° C., and the nematode mortality rate was calculated. […] The test was repeated.

Caenorhabditis elegans = assay: Efficacy test against Caenorhabditis elegans (in vitro test); conditions: 48 h, final concentration 50 ppm, mixed instars, 2 days at 25° C., read-out: nematode mortality rate against Caenorhabditis elegans
Experimental: as §1, with “mixed instars” for “second-instar larvae (L2)”, “Caenorhabditis elegans” for “Meloidogyne incognita”, “25°” for “15°”

Spodoptera litura = assay: Efficacy test against Spodoptera litura (cabbage leaf dip); format: in vivo; conditions: foliar, 144 h, cabbage leaves soaked 30 seconds, second-instar larvae, 6 days after larvae release, read-out: mortality rate against Spodoptera litura
Experimental: (§2) Five parts of the compound of the present invention, 93.6 parts of dimethylformamide and 1.4 parts of a polyoxyethylene alkyl aryl ether were mixed together and dissolved to obtain an emulsion (1) containing 5% of the active constituent.
The mortality rate was calculated using the following equation. Mortality rate (%)=(number of dead pests/number of test pests)×100
The emulsion (1) was diluted with water to achieve a concentration of the compound of the present invention of 125 ppm. Cabbage leaves were soaked in the diluted liquid for 30 seconds. These cabbage leaves were then placed in a Petri dish, and five second-instar larvae of Spodoptera litura were released into the dish. The Petri dish was placed in a temperature-controlled room at a temperature of 25° C. and a humidity of 60%. Mortality was investigated 6 days after larvae release, and the mortality rate was calculated. The test was repeated.

Ascaridia galli = assay: Efficacy test against Ascaridia galli (in vitro, L3 larvae, MEC); conditions: activity against at least one type of target parasitic worm: Ascaridia galli L3 or Oesophagostomum dentatum L3/L4
Experimental: Using the gut-welling larval stages of two parasitic worms: namely, the third stage larvae (L3) of Ascaridia galli, and the third and fourth stage larvae (L3 and L4 respectively) of Oesophagostomum dentatum, the bioactivity of compounds of the present invention were investigated in vitro. When conducting these tests, DMSO solutions of the compounds of the present invention were prepared at various concentrations and incubated in the wells of a 96-well microtiter plate. Subsequently, 20 parasitic worm larvae were inoculated into each well. The bioactivity was determined by inspection under a microscope. The inspection under a microscope included evaluations of the mortality rate, injury, motility, development progression, and neutral red uptake by the larvae compared with a DMSO control.

Mythimna separata = assay: Efficacy test against Mythimna separata (treated artificial feed); conditions: in vivo
Outline: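 Second-instar larvae (2 per area) were given artificial feed mixed with a 5% active-constituent emulsion in DMF with polyoxyethylene alkyl aryl ether. They were kept sealed at 25 °C. Mortality (dead/tested ×100) and feed consumption were scored on day 5, with a compound-free emulsion as control.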

Dirofilaria immitis = assay: Efficacy test against Dirofilaria immitis (in vitro, Mf and L4); conditions: 10 μM, 72 hours, 37° C.
Text: Using the microfilarial stage and the fourth stage larvae (Mf and L4 respectively) of Dirofilaria immitis, the bioactivity of compounds of the present invention were investigated in vitro. The Mf was collected from the blood of infected dogs, and 500 microfilariae were inoculated into each well of a 96-well microtiter plate. The L4 larvae was obtained by allowing L3 larvae collected from infected mosquitoes to undergo a single molt, and 10 of these L4 larvae were inoculated into each well. Subsequently, a 10 mM DMSO solution of the compound of the present invention was prepared at various concentrations and added to each well in a ratio of 1/1,000, and a test was then conducted at a final concentration of 10 μM. Incubation was performed at 37° C. in an environment containing 5% carbon dioxide, and 72 hours after treatment with the compound, the mortality and growth inhibition were determined. The test was repeated.

Meloidogyne incognita [2] = assay: Efficacy test against Meloidogyne incognita (clubroot formation suppression test on cucumber); format: in vivo; conditions: 125 ppm, 1 ml irrigated on culture medium with cucumber seeds; 200 eggs; after 14 days; relative to untreated sample
Experimental: as §2
The emulsion (I) was diluted with water to achieve a concentration of the compound of the present invention of 125 ppm. A plastic container with a diameter of 5 cm was filled with 7 g of a culture medium, and cucumber seeds were planted. The culture medium was irrigated with 1 ml of the above dilute liquid, and then inoculated with 200 eggs of Meloidogyne incognita. The container was then placed in a temperature-controlled room at a temperature of 25° C. and a humidity of 60%, and after 14 days, the clubroot formation suppression ratio (%) relative to an untreated sample was calculated from the number of clubroots formed on the roots of the cucumber plants. The test was repeated. Clubroot formation suppression ratio (%)=(1−Nt/Nc)×100
Nt: Total number of club roots formed in two treated samples after 14 days
Nc: Total number of club roots formed in two untreated samples after 14 days

Row | SMILES | mortality rate against Mythimna separata, or amount of feed consumed relative to control (Mythimna separata) | other results
1 | O=C(Nc1ccc(C(F)(F)F)cc1)c1ccc(C(F)(F)F)cc1NS(=O)(=O)C(F)(F)F [a-9, 4-(trifluoromethyl)-N-[4-(trifluoromethyl)phenyl]-2-(trifluoromethylsulfonylamino)benzamide] |  | mortality at 12.5 µM (Aedes aegypti): ≥ 80%; mortality at 50 ppm (Meloidogyne incognita [1]): ≥ 80%; mortality at 50 ppm (Caenorhabditis elegans): ≥ 80%; mortality at 125 ppm (Spodoptera litura): ≥ 80%
2 | O=C(Nc1ccc(F)c(C(F)(F)F)c1)c1ccc(OC(F)(F)F)cc1NS(=O)(=O)C(F)(F)F [a-25] | 100%, or the amount of feed consumed was 10% or less | MEC (minimum effective concentration) (Ascaridia galli): ≤ 25 µM
3 | O=C(Nc1ccc(C(F)(F)F)cc1)c1ccc(OC(F)(F)F)cc1NS(=O)(=O)C(F)(F)F [a-26] | 100%, or the amount of feed consumed was 10% or less | mortality rate or growth inhibition rate (Dirofilaria immitis; fourth stage larvae (L4)): at least 90%; mortality rate or growth inhibition rate (Dirofilaria immitis; microfilarial stage (Mf)): at least 90%
4 | COC(=O)c1cc(Cl)c(Cl)cc1NC(=O)c1ccc(C(F)(F)F)cc1NS(=O)(=O)C(F)(F)F [a-80] | 100%, or the amount of feed consumed was 10% or less | clubroot formation suppression ratio against Meloidogyne incognita (Meloidogyne incognita [2]): ≥ 80%
5 | O=C(Nc1ccc(F)c(F)c1)c1ccc(C(F)(F)F)cc1NS(=O)(=O)C(F)(F)F [a-138] | 100%, or the amount of feed consumed was 10% or less | 
6 | O=C(Nc1cc(C(F)(F)F)ccc1-c1nnco1)c1ccc(C(F)(F)F)cc1NS(=O)(=O)C(F)(F)F [a-139] | 100%, or the amount of feed consumed was 10% or less | 
7 | O=C(Nc1ccc(F)c(C(F)(F)F)c1)c1ccc(Cl)cc1NS(=O)(=O)C(F)(F)C(F)(F)C(F)(F)C(F)(F)F [a-141] | 100%, or the amount of feed consumed was 10% or less | 
8 | O=C(Nc1ccc(F)c(F)c1)c1cc(Br)c(Cl)cc1NS(=O)(=O)C(F)(F)F [a-143] | 100%, or the amount of feed consumed was 10% or less | 
9 | O=C(NCc1ccc(Cl)cc1)c1ccc(C(F)(F)F)cc1NS(=O)(=O)C(F)(F)F [b-1] | 100%, or the amount of feed consumed was 10% or less | 
10 | CC(C)(NC(=O)c1ccc(C(F)(F)F)cc1NS(=O)(=O)C(F)(F)F)c1ccc(Cl)cc1 [b-2] | 100%, or the amount of feed consumed was 10% or less | 
11 | CC(NC(=O)c1ccc(C(F)(F)F)cc1NS(=O)(=O)C(F)(F)F)c1ncc(C(F)(F)F)cc1Cl (stereo not shown) [b-4] | 100%, or the amount of feed consumed was 10% or less | 
12 | CCC(NC(=O)c1ccc(C(F)(F)F)cc1NS(=O)(=O)C(F)(F)F)c1ccc(C(F)(F)F)cn1 (stereo not shown) [b-6] | 100%, or the amount of feed consumed was 10% or less | 

From patent publication US10793520B2, “Sulfonylaminobenzamide compound and pest control agent” (Nippon Soda Co., Ltd., priority 2016, dated 2020)
